# Data from PMC12491701, “Discovery of an APP-selective BACE1 inhibitor for Alzheimer's disease” (Neurotherapeutics, 2025).
# Several values for one entry are separate records, joined by “and”; a condition that tells them apart may be missing. Identical values can stand only once.
# Legend:
# [1] = molecular target: BACE1 (Homo sapiens, UniProt P56817); assay: P5-P5′ BACE1 inhibition assay; type: biochemical; details: cell-free; read-out: BACE1 IC50 (P5-P5′ assay; BACE1-APP)
# Procedure: For the P5-P5′ BACE1 inhibition assay, 4 ​μL of assay buffer was added to each well, followed by 2 ​μL of BACE1 diluted in assay buffer to 7.5 ​ng/μL. Then, 2 ​μL of inhibitor, at concentrations along an 11 ​pt. two-fold dilution series starting at 10 ​μM, or 0.5 ​μM, were added to appropriate wells and incubated for 30 ​min at room temperature. For all dilutions of inhibitor, drug stock solutions of 10 ​mM in DMSO were diluted to 50 ​μM in water; subsequent dilutions were in 0.5 ​% DMSO. Afterwards, 2 ​μL of fluorogenic P5-P5′ BACE1 substrate, diluted to 50 ​μM in assay buffer, were added to each well and the signal generated was read every 30 ​min at 25 ​°C for 2 ​h.
# [2] = molecular target: BACE1 cleavage of MBP-APPC125 substrate (Homo sapiens, UniProt P56817); assay: MBP-APPC125 BACE1 cleavage assay; type: biochemical; details: in words
# Procedure: (-)/peak 2 enantiomers. […] Specifically, 2 μL of the Acc-Mix was loaded into each well and incubated for 1-hour at RT, then 2 μL of Donor-Mix was added and incubated for 30 min at room RT protected from light. The signal was quantified using an Envision Plate reader (Fig S6). Testing of FA[…](-) in HEK-APP-GFP cells HEK293T cells stably transfected with human APP (P05067-1, […]) tagged with Green Fluorescent Protein (GFP) on the N-terminal (HEK-APP; AcroBiosystems cat# CHEK-ATP081) were cultured according to manufacturer recommendations. […] Cells were then washed with PBS and imaged at 37 °C and 5% CO2 using a BioTek Lionheart FX microscope using brightfield and green fluorescence filters with a 20X objective. Images were then processed with Gen5 software to obtain the total intensity of the GFP channel (469/525) and the mean GFP channel intensity.(Fig S7, S8) Supplementary Figures Figure S1. BACE inhibition dose-response and pharmacokinetics for FAH1 and FAH3. (a) IC50 curves for FAH1, 3, 17 and 65 in the P5-P5' assay described in main manuscript. […] μM, respectively. […] 150 FAH-65 BA C E-IV 100 50 0 50 10 0. 1 [ ] µM Figure S2. FAH65 in the BACE2 assay. […] 6 (1 picture or pasted object on this page, not shown here)
# [3] = molecular target: T1, BACE1 cleavage of NRG1 (Homo sapiens, UniProt P56817); assay: SEAP-NRG assay; type: cell-based; details: SEAP-NRG1, HEK293
# T1 construct: with or without full-length wild-type BACE1; expressed in transfected cells; host or cells: HEK293
# Procedure: A cDNA construct encoding a human placental secreted alkaline phosphatase (SEAP)-NRG1 (pAPtag5-NRG1-β1) fusion protein was transfected in human embryonic kidney (HEK293) cells in a 6-well format with or without full-length wild-type BACE1 using Lipofectamine 2000 (Invitrogen) as described previously [27]. After transfection, the medium was replaced with DMEM containing the test compound at 10, 5, 1, 0.1, and 0.01 ​μM as well as 10 ​% heat-inactivated fetal bovine serum (FBS), then incubated for 24 ​h. SEAP activity was measured in the conditioned medium.
# [4] = molecular target: T2, BACE1 cleavage of PSGL1 (Homo sapiens, UniProt P56817); assay: PSGL1 assay (SEAP-PSGL1); type: cell-based; details: SEAP-PSGL1, HEK293
# T2 construct: with or without full-length wild-type BACE1; expressed in transfected cells; host or cells: HEK293
# Procedure: A cDNA construct encoding a human placental secreted alkaline phosphatase (SEAP)-PSGL1 (pAPtag5-PSGL1-β1) fusion protein was transfected in human embryonic kidney (HEK293) cells in a 6-well format with or without full-length wild-type BACE1 using Lipofectamine 2000 (Invitrogen). After 6–8 ​h transfection, the medium was replaced with DMEM containing the test compound at 10, 5, 1, 0.1 and 0.01 ​μM and 10 ​% heat-inactivated fetal bovine serum (FBS), and incubated for 24 ​h. SEAP activity was measured in the conditioned medium.
# [5] = test system: CHO-7W cells expressing wildtype human APP; assay: sAPPβ and Aβ1-42 production in CHO-7W cells (AlphaLISA); type: cell-based, Chinese hamster; details: 1 μM, in words
# Procedure: Culture Media was collected and frozen. Media was assayed using an AlphaLISA for Aβ1-42 (Perkin Elmer catalog # AL276C), sAPPα (R&D Systems catalog # AF1168 conjugated with Perkin Elmer acceptor beads catalog # 6772001 + 2B3 antibody from IBL catalog # 11088 biotinylated), and sAPPβ (Perkin Elmer AL276-acceptor + IBL catalog # 18957 biotinylated). For the assay, 2 μL of diluted or undiluted sample was added to a 384 well plate, followed by 2 μL of the respective antibody mixture. This was incubated for 1 h. Afterwards, 2 μL of donor beads was added to each well, followed by a 30-min incubation in the dark, after which the signal was read.
# [6] = molecular target: eAPP (Homo sapiens, UniProt P05067); assay: APP binding by surface plasmon resonance (SPR)
# Procedure: The interaction of FAH3, 17 and 65 were evaluated using the SPR protocol described previously in Descamps et al., [26].
# For these pilot experiments eAPP as described in Descamps et al (26) is crosslinked to a the CM5 Biacore chip. FAH3 at various concentration was used in the flow through the chip, and the plasmon resonance signal was determined using a Biacore T100. The raw data uncorrected for contribution of running buffer is fit to equilibrium binding data and corrected for the contribution of the running buffer to
# For FAH17 and FAH65-APP binding was determined using SPR to determine competition with BSA that non-specifically binds to the eAPP-Biacore chip.
# [7] = molecular target: T3, cathepsin D (CatD) (Homo sapiens, UniProt P07339); assay: Cathepsin D activity assay; type: biochemical; details: in words
# T3 construct: purchased R&D Systems 1014-AS
# Procedure: The effects of candidate ASBIs on cathepsin D (CatD) activity was assessed using the R&D Systems CatD activity assay kit (Catalog #: 1014-AS and ES001) according to the manufacturer's instructions. For the assay, 4 μL of assay buffer was added to each well, followed by 2 μL of CatD diluted in assay buffer to 5 ng/uL. Then, 2 μL of inhibitor, at concentrations along an 11 pt. two-fold dilution series starting at 50 μM, were added to appropriated wells and incubated for 30 min at room temperature. For all dilutions of inhibitor, drug stock solutions of 10 mM in DMSO were diluted to 50 μM in water; subsequent dilutions were in 2.5 % DMSO. Afterwards, 2 μL of fluorogenic CatD substrate, diluted to 50 μM in assay buffer, were added to each well, after which the signal generated was read every 30 min at 25 °C for 1hr.
# BACE1, sequence (P56817 46-501): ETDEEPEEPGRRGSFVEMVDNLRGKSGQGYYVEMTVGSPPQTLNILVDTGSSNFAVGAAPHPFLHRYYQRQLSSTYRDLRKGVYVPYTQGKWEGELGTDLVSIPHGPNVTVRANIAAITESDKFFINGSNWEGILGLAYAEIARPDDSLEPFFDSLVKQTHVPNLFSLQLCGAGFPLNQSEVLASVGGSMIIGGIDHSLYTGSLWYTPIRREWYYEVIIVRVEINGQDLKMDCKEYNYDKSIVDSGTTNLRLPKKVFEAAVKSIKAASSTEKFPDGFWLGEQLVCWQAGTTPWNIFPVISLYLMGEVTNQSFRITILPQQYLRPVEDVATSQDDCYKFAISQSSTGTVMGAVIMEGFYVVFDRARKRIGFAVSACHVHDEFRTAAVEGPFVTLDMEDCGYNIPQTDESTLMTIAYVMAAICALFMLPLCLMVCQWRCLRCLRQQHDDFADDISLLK
# T2 sequence (P56817 46-501): as above
# BACE1 cleavage of MBP-APPC125 substrate, sequence (P56817 46-501): as above
# T1 sequence (P56817 46-501): as above
# eAPP, sequence (P05067 18-701): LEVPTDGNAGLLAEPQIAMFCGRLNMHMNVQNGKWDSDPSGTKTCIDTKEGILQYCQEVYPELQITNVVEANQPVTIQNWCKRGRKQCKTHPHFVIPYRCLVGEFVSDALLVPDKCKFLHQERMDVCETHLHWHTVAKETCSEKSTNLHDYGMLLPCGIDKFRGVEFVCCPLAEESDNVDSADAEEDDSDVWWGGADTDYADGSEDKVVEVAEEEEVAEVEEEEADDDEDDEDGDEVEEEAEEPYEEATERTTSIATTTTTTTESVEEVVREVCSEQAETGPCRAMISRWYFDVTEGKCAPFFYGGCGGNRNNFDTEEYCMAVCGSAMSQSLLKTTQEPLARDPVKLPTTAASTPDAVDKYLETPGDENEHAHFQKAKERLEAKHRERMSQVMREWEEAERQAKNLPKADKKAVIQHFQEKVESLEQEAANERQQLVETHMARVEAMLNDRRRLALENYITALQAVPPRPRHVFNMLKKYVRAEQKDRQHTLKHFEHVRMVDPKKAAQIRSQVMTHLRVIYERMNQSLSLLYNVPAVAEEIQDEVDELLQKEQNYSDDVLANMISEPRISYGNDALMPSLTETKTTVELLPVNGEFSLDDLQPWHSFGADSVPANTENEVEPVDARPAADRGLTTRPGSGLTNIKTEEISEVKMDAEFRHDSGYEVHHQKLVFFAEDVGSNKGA
# T3 sequence (P07339 65-412): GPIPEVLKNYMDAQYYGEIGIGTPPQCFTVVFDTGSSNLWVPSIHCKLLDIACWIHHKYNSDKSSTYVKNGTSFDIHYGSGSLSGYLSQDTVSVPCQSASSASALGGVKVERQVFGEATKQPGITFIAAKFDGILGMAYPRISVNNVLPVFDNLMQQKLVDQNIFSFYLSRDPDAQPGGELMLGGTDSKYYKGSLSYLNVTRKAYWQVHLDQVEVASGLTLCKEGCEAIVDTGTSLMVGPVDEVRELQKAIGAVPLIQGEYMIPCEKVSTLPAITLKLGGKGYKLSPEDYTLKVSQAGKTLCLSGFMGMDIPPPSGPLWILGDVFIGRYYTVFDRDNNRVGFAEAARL
IC50 [1],inhibition of BACE1 cleavage of MBP-APPC125 [2],EC50 [3],EC50 [4],Kd [6],inhibition of cathepsin D activity [7],Structure (SMILES),sAPPβ production ([5]; 24-h treatment),Aβ1-42 production [5]
> 200 µM,weak inhibitor,–,–,–,–,"O=C1NC(=O)C(c2ccccc2)(c2ccccc2)N1 [phenytoin, reference compound]",–,–
~0.3 µM and 0.3 µM,–,> 10 µM,> 10 µM,~3.3 µM,Neither analog significantly inhibited,Cc1cc(C2(c3cccc(F)c3)N=C(N)N(C)C2=O)ccc1OC(F)F (stereo not drawn) [FAH17],decrease,decrease
